Laboratory results as given in patent US8946243B2, “Compounds and methods for the treatment of viral infection” (The United States of America, as represented by the …, priority 2008, dated 2015).
pEC50: −log10 of the molar value. Where two headings read alike, the source gives them in different places.

Tests used:
HIV-2(ROD) = assay: Anti-HIV activity in CEM cell cultures: prevention of giant cell (syncytium) formation, HIV-2(ROD); type: cell-based; conditions: Human immunodeficiency virus 2, CCRF-CEM, read-out: EC50 HIV-2(ROD)
HIV-1 X4 LAI.04 = assay: HIV-1 replication in ex vivo human tonsillar tissue culture: p24gag in culture medium; type: cell-based; conditions: for pEC50 / EC90: Human immunodeficiency virus 1; for pEC50 / EC90 / EC75: ex vivo human tonsillar tissue, X4 LAI.04, p24gag
Description: Tonsillar tissues from routine surgery were obtained from the Children's National Medical Center, Washington D.C. Tissues were dissected into 2-mm^3 blocks and placed onto collagen sponge gels at the air-liquid interface. Tissue blocks were cultured in RPMI 1640 medium containing 15% heat-inactivated fetal calf serum, nonessential amino acids (1 mM), sodium pyruvate (1 mM), amphotericin B (2.5 μg/mL) and gentamicin (50 μg/mL). The culture medium was changed every 3 days and prodrugs were replenished. Blocks of human lymphoid tonsillar tissues were inoculated ex vivo with X4LAI.04 and treated with increasing concentration of each prodrug (0,1; 0.5; 1; 5 and 10 μM). HIV-1 replication was monitored by measuring p24gag accumulated in culture media over 3 day periods. For each donor, HIV-1 replication in 9 treated blocks was compared with that in 9 untreated blocks from the same donor.

HIV-1(IIIB) = assay: Anti-HIV activity in CEM cell cultures: prevention of giant cell (syncytium) formation, HIV-1(IIIB); type: cell-based; conditions: concentration preventing syncytium formation by 50%, 4-5 days
Description: (§1) Human T-lymphocyte MT-4 or CEM cells were obtained from the American Type Culture Collection (Manassas, Va.) and cultivated in RPMI 1640 medium supplemented with 10% fetal bovine serum 2 mM L-glutamine and 0.075 M NaHCO3.
(§2) HIV-1(IIIB) was provided by Dr. R. C. Gallo and Dr. M. Popovic (at that time at the NCI, National Institutes of Health, Bethesda). A closely related HIV-1 variant (LAI.04) was obtained from the NIH AIDS Reagent Program.
(§3) Briefly, CEM cells (4.5×10^5 cells per ml) were suspended in fresh culture medium and infected with HIV-1 at 100 CCID50 (cell culture infective dose-50) per ml of cell suspension. Then 100 μl of the infected cell suspension were transferred to microplate wells, mixed with 100 μl of the appropriate dilutions of the test compounds, and further incubated at 37° C. After 4-5 days, giant cell formation was recorded microscopically in the CEM cell cultures. […] MT4 cells (1×10^4 cells per ml) were suspended in fresh culture medium and infected with 10 uL of HIV-1LAI.04 viral stock at 260 CCID50 (cell culture infective dose-50) per ml of cell suspension. Then infected cell suspensions were transferred to microplate wells, mixed with 1 mL of the appropriate dilutions of the test compounds, and further incubated at 37° C. After 7 days, p24 production was measured in the MT4 cell cultures supernatant.

HIV-1 LAI.04 = assay: Anti-HIV activity in MT4 cell cultures: p24 production; type: cell-based; conditions: for inhibition of HIV-1 (in words): MT-4 cell line, concentration of 5 μM
Description: as §1, §2
as §3, with “After 7 days, p24 production was measured in the MT4 cell cultures supernatant.” left out

[1] = Cytostatic activity in CEM cell cultures; type: cell-based; conditions: human, CEM T-lymphocyte cells
Description: as §1

HIV-1 RT = HIV-1 RT (Human immunodeficiency virus type 1 group M subtype B, UniProt P03366); assay: Inhibition of HIV-1 RT; type: biochemical
[2] = Human immunodeficiency virus 1, IIIB, CCRF-CEM, read-out: EC50 HIV-1(IIIB), CEM cell cultures
[3] = Human immunodeficiency virus 1, MT4
[4] = CEM cell cultures, 50% effective concentration
[5] = MT4 cell cultures, HIV-1 LAI.04, 50% suppression of p24 production, read-out: EC50

Row | SMILES | pEC50 (HIV-2(ROD)) | pEC50 (HIV-1 X4 LAI.04) | EC90 (HIV-1 X4 LAI.04) | EC75 (HIV-1 X4 LAI.04) | pEC50 (HIV-1(IIIB); [2]) | pEC50 (HIV-1 LAI.04; [3]) | CC50 [1] | further results
1 | COC(=O)[C@H](C)NP(=O)(OCCOCn1cnc2c(=O)[nH]c(N)nc21)Oc1ccccc1 (stereo partly drawn) [Cf 1811, acyclovir-[1-phenyl-(methoxy-L-alaninyl)]phosphate] | 4.59 | > 7.00 | 0.5 µM | 0.1 µM | 4.80 | 4.82 | 67 µM | 
2 | Nc1nc2c(ncn2COCCO)c(=O)[nH]1 [ACV, Acyclovir, reference compound] |  |  |  |  |  |  | > 250 µM | pEC50 (HIV-2(ROD); [4]): < 3.60; inhibition of HIV-1 (in words) (HIV-1 LAI.04): inefficient; effect on replication of HIV-1 (in words) (HIV-1 LAI.04; MT-4 cells, at low concentrations): does not affect HIV-1 replication at all
3 | COC(=O)[C@H](C)NP(=O)(OCCOCn1cnc2c(=O)[nH]c(N)nc21)Oc1cccc2ccccc12 (stereo partly drawn) [Cf 2649, acyclovir-[1-naphthyl(methoxy-L-alaninyl)]phosphate] | 5.03 | > 7.00 | 0.1 µM | <0.1 µM | 5.01 | 5.52 | 57 µM | suppression of HIV-1 replication, time course (FIG. 1, in words) (HIV-1 X4 LAI.04; human tonsillar tissue, 27 blocks, LAI.04, drug replenished every three days, p24 ELISA): efficient suppression of HIV replication; inhibition at 5 µM (HIV-1 LAI.04; Human immunodeficiency virus 1, MT4, read-out: inhibition of replication of HIV-1): 99%; dose-dependency of HIV suppression (FIG. 2, in words) (HIV-1 LAI.04; MT4 cells, LAI.04, day 3 post-infection, p24 ELISA): suppression of HIV replication by the drug in dose-dependent manner
4 | Nc1nc2c(ncn2COCCOP(=O)(N[C@@H](Cc2ccccc2)C(=O)OCc2ccccc2)Oc2ccccc2)c(=O)[nH]1 (stereo partly drawn) [Cf 2650, acyclovir-[1-phenyl-(benzoxy-L-phenylalaninyl)]phosphate] | 4.68 | > 7.00 | 3 µM | 1.5 µM | 4.62 | 4.80 | 42 µM | 
5 | Nc1nc2c(ncn2COCCOP(=O)(O)O)c(=O)[nH]1 [ACV monophosphate, reference compound] |  |  |  |  |  |  |  | pEC50 (HIV-1 LAI.04; [5]): 4.00; inhibition of HIV-1 (in words) (HIV-1 LAI.04): inefficient
6 | C[C@H](NP(=O)(OCCOCn1cnc2c(=O)[nH]c(N)nc21)Oc1ccccc1)C(=O)OCc1ccccc1 (stereo partly drawn) [Cf 2648, acyclovir-[1-phenyl-(benzoxy-L-alaninyl)]phosphate] | 5.06 | > 7.00 | 0.55 µM | <0.1 µM | 5.49 | 5.10 | 33 µM | 
7 | Nc1nc2c(ncn2COCCOP(=O)(O)OP(=O)(O)OP(=O)(O)O)c(=O)[nH]1 [ACV triphosphate, reference compound] |  |  |  |  |  |  |  | inhibition of HIV-1 RT (in words) (HIV-1 RT): potent inhibitor; pEC50 (HIV-1 LAI.04; [5]): 4.30
8 | CCCOC(=O)[C@H](C)NP(=O)(OCCOCn1cnc2c(=O)[nH]c(N)nc21)Oc1cccc2ccccc12 (stereo partly drawn) [Cf 2629, acyclovir-[1-naphthyl(n-propoxy-L-alaninyl)]phosphate] | 5.13 | > 7.00 | 1.5 µM | 0.4 µM | 5.49 | 5.00 | 22 µM | pEC50 (HIV-1(IIIB); read-out: EC50 HIV-1(IIIB), CEM cell cultures): 5.47
9 | Nc1nc(O)c2ncn(COC(CO)CO)c2n1 [GCV, Ganciclovir, reference compound] |  |  |  |  |  |  | > 250 µM | pEC50 (HIV-2(ROD); [4]): < 3.60; pEC50 (HIV-1(IIIB); Human immunodeficiency virus 1, IIIB, CCRF-CEM, CEM cell cultures, read-out: EC50 HIV-1(IIIB)): < 3.60
10 | C[C@H](NP(=O)(OCCOCn1cnc2c(=O)[nH]c(N)nc21)Oc1cccc2ccccc12)C(=O)OCc1ccccc1 (stereo partly drawn) [Cf 2574, acyclovir-[1-naphthyl(benzoxy-L-alaninyl)]phosphate] | 5.14 | > 7.00 | 0.9 µM | 0.62 µM | 4.76 | 6.10 | 17 µM | 
